Assay results reported in PMC4604408, “Targeting the Parasite's DNA with Methyltriazenyl Purine Analogs Is a Safe, Selective, and Efficacious Antitrypanosomal Strategy” (Antimicrobial Agents and Chemotherapy, 2015).
“Also recorded” adds a separate entry of the source. Read-outs that look alike come from different tables or passages of the source.

Assays:
[1] = target: T. brucei H2 (hypoxanthine transporter 2 of T. brucei brucei); set-up: method as in PMID 9364969; conditions: natural substrates; read-out: Transport (Ki value) T. brucei H2; cited from earlier work
[2] = target: T. brucei H2 (hypoxanthine transporter 2 of T. brucei brucei); assay type: cell-based; conditions: read-out: Transport (Ki value) T. brucei H2
[3] = test system: T. brucei brucei WT (strain 427); experiment: microbe, parasite or virus in culture; assay type: cell-based; conditions: for SI, in vitro selectivity index: EC50(HEK)/EC50(T. brucei brucei WT); for EC50: Trypanosoma brucei, read-out: In vitro activity (EC50) T. brucei brucei WT
[4] = test system: T. brucei brucei 427 tbat1^−/−; experiment: microbe, parasite or virus in culture; assay type: cell-based; conditions: for EC50: Trypanosoma brucei, read-out: In vitro activity (EC50) T. brucei brucei 427 tbat1^−/−
[5] = test system: His– S. typhimurium strains TA98 and TAMix; experiment: Ames II mutagenicity assay; assay type: cell-based, Salmonella typhimurium; conditions: before (–S9) and after (+S9) metabolic activation, 62.5 µM to 2 mM
[6] = test system: freshly isolated rat hepatocytes; experiment: hepatotoxicity on freshly isolated rat hepatocytes; assay type: cell-based; conditions: 100 µM, up to 120 min
Experimental: page 11: Figure S3 A B C 125 125 125 100 100 100 75 75 75 50 50 50 25 Contr ol 25 Contr ol 25 Contr ol 0 + NA1371 0 +NA1371 0 +NA1371 0 30 60 90 120 0 30 60 90 120 0 30 60 90 120 […] ) Figure S3. […] (A) Hepatocytes from male Sprague-Dawley rats were isolated as described (4, 5) and hepatotoxicity assays were performed as described (6). […] or left untreated. Cell viability was determined by a Trypan blue exclusion test. Values are normalized to t=0 min (%). (B) The reduced glutathione (GSH) content of hepatocytes was determined by an O-phthaldehyde fluorimetric test. […] (C) The total protein content of hepatocytes was determined by a Lowry assay. […]

[7] = test system: T. brucei brucei (STIB 795); experiment: mouse model of acute trypanosomiasis; assay type: in vivo; conditions: female NMRI mice, 50 mg/kg i.p. daily for 4 days from day 3 postinfection
[8] = test system: T. brucei rhodesiense (STIB 900); experiment: stringent mouse model of trypanosomiasis; assay type: in vivo; conditions: female NMRI mice, 50 mg/kg i.p. for four consecutive days from day 3 postinfection
Experimental: The experiments were performed essentially as described previously ([26]). Female NMRI mice were infected intraperitoneally (i.p.) with 10^4 bloodstream-form T. brucei brucei (strain STIB 795) or 3 × 10^3 T. brucei rhodesiense (strain STIB 900). Experimental groups of four mice were treated i.p. with test drug daily on four consecutive days starting from day 3 postinfection. A control group was infected but remained untreated. The tail blood of each mouse was checked for parasitemia up to 60 days postinfection; mice were culled when parasitemia was >10^8 trypanosomes/ml of blood. Surviving and aparasitemic mice at day 60 were considered cured and were euthanized. All protocols and procedures used in this study were reviewed and approved by the local veterinary authorities of the Canton Basel-Stadt, Switzerland.
Figure S4. Methyltriazenyl purine 1 has a high cure rate in acute T. b. rhodesiense infection in vivo. Kaplan–Meier survival plot for female NMRI mice (n = 4 per group) after infection with T. b. rhodesiense (STIB900) (inoculum 3×10^3 parasites). Intraperitoneal injection with 1 dissolved in DMSO started 3 days after infection at a single dose of 50 mg/kg

BF T. brucei brucei = experiment: TUNEL assay for DNA strand breaks in trypanosomes; assay type: cell-based; conditions: 3 μM, 24 h
Tbb msh2+/+ = experiment: microbe, parasite or virus in culture; assay type: cell-based, Trypanosoma brucei; conditions: read-out: Tbb msh2+/+ (EC50; µM) AVG
Tbb msh2+/- = experiment: microbe, parasite or virus in culture; assay type: cell-based, Trypanosoma brucei; conditions: read-out: Tbb msh2+/- (EC50; µM) AVG
Tbb msh2-/- = experiment: microbe, parasite or virus in culture; assay type: cell-based, Trypanosoma brucei; conditions: for EC50: read-out: Tbb msh2-/- (EC50; µM) AVG
[9] = assay type: in vivo; conditions: up to 10 × 50 mg/kg i.p. daily
[10] = test system: bloodstream-form T. brucei; experiment: potency in Creek's minimal medium with inosine or hypoxanthine as purine source; assay type: cell-based
BF T. brucei [11] = experiment: growth curves of treated bloodstream-form trypanosomes; assay type: cell-based; conditions: 15 µM for 72 h in Fig. S7
Experimental: Given its promising antiparasitic efficacy in vitro and in vivo, we selected lead compound 1 for further antitrypanosomal mechanism-of-action studies. […] We analyzed the DNA content of these cells over 24 h by flow cytometry (Fig. 3B; see also Fig. S7 in the supplemental material). After 4 h of exposure to 15 μM compound 1, we observed a decrease in the proportion of cells with normal diploid (2C) DNA content, whereas an aberrant population of cells started to appear with a DNA content between 2C and 4C. […] We also monitored the karyotype distribution of BF T. brucei over time (see Fig. S8 in the supplemental material), using DAPI staining to visualize nuclei (N) and kinetoplasts (K). Within the first 8 h (the normal time to complete one cell cycle) of exposure to compound 1, we observed a significant increase in 1N2K cells, with a coincident decrease in 1N1K and 2N2K. […]
FIG 3 Methyltriazenyl purines cause cell cycle arrest in the G2/M phase in T. brucei. […] (b) DNA content of BF T. brucei in the presence or absence of 15 μM compound 1, as determined by propidium iodide staining of fixed cells and measured by fluorescence-activated cell sorting (FACS). […]
Figure S7. […] B) Long term growth curve of bloodstream form T.b. brucei s427 cultures (seeded at 5 × 10^5 cells/mL) exposed to 15 µM of 1 (closed squares) or vehicle only (open circles) monitored for 72 hours. […]

BF T. brucei [12] = experiment: DNA content by propidium iodide staining and flow cytometry; assay type: cell-based; conditions: 15 μM, 24 h
[13] = test system: HEK293 (human embryonic kidney 293T cells); experiment: cells; conditions: read-out: In vitro activity (EC50) HEK293
[14] = spontaneous triazene hydrolysis by UV spectroscopy; conditions: 50 µM in PBS at 37 °C, physiological conditions, n=2
[15] = test system: HEK293 (human embryonic kidney 293T cells)
[16] = test system: T. b. rhodesiense STIB 900; experiment: microbe, parasite or virus in culture; assay type: cell-based; conditions: Trypanosoma brucei, read-out: Trypanosoma brucei rhodesiense EC50
P. falciparum K1 strain = experiment: microbe, parasite or virus in culture; assay type: cell-based; conditions: Plasmodium falciparum, K1, read-out: Plasmodium falciparum EC50
physchem = conditions: buffer
[17] = inhibition of 0.05 μM [3H]hypoxanthine uptake, 60 s, mean ± SEM, n ≥ 3
[18] = Creek's minimal medium, same concentration of inosine or hypoxanthine

Structure (SMILES)	SI, in vitro selectivity index [3]	EC50 [3]	EC50 [4]	EC50 (Tbb msh2+/+; Trypanosoma brucei)	EC50 (Tbb msh2+/-; Trypanosoma brucei)	EC50 (Tbb msh2-/-; Trypanosoma brucei)	EC50 [13]	further results
O=c1[nH]cnc2nc[nH]c12 [Hypoxanthine]								Ki [1]: 0.12 ± 0.03 µM
CC(=O)N(C)/N=N/c1nc(OCc2ccccc2)c2nc[nH]c2n1 [Compound 9]								Ki [2]: 5.8 ± 0.01 µM
CC(=O)N(C)N=Nc1nc(O)c2[nH]cnc2n1 [Compound 1, 2-(3-acetyl-3-methyltriazen-1-yl)-6-hydroxypurine]	>595	0.42 ± 0.05 µM	0.52 ± 0.08 µM	0.87 µM	1.5 µM	3.9 µM	> 250 µM	antitrypanosomal potency against BF T. brucei in vitro (in words) [3]: submicromolar; Ki [2]: 0.59 ± 0.15 µM; mutagenic activity in Ames II test [5]: negative (not mutagenic); also recorded: did not reveal any mutagenic activity; hepatotoxic effects, hepatocyte viability (Trypan blue exclusion) [6]: does not show toxic effects; also recorded: no hepatotoxic effects; total protein content of hepatocytes (Lowry assay) [6]: No protein loss; cure rate [7]: 100%; survival of treated mice [7]: > 60 days; cure rate [8]: 75%; increase in BrdU incorporation (DNA strand breaks) (BF T. brucei brucei): 2 fold; potency against cells with impaired or lost MSH2 activity (Tbb msh2-/-): reduced potency; tolerability [9]: well tolerated; sensitivity (EC50) in medium with inosine compared to hypoxanthine as purine source [10]: higher; effect on culture proliferation (BF T. brucei [11]): Cell growth is arrested and the cells eventually die; also recorded: arrested in its proliferation; DNA content of treated cells (BF T. brucei [12]): majority of cells having an apparent 4C DNA content; hydrolysis half-life [14]: ~6.8 h; half-life at 50 µM ([14]; PBS, hydrolysis half-life): 6.8 ± 0.4 h
CN(N=Nc1nc(N)c2[nH]cnc2n1)C(=O)Oc1ccc([N+](=O)[O-])cc1 [Compound 7]	>13	19.4 ± 4.1 µM	20.7 ± 4.6 µM				> 250 µM	
N=C(N)c1ccc(/N=N/Nc2ccc(C(=N)N)cc2)cc1 [DIM, diminazene, reference compound]		0.26 ± 0.05 µM	7.9 ± 0.7 µM	0.5 µM	0.64 µM	0.68 µM		fold lower activity against tbat1^−/− cells than wild type ([4]; tbat1^−/− versus wild-type): 30 fold
O=C(NN=Nc1nc(O)c2[nH]cnc2n1)Oc1ccccc1 [Compound 5]		> 100 µM	> 100 µM	192 µM	166 µM	168 µM	> 250 µM	antitrypanosomal potency against BF T. brucei in vitro (in words) [3]: did not show any toxic effects; Ki [2, 17]: 0.09 ± 0.02 µM; toxicity to HEK293T cells (in words) [15]: did not show any toxic effects
CN(/N=N/c1nc(OCc2ccccc2)c2nc[nH]c2n1)C(=O)Oc1ccccc1 [Compound 10]								Ki [2, 17]: 22.5 ± 9.2 µM; EC50 [16]: 8.9 µM; EC50 (P. falciparum K1 strain): > 10 µM
Nc1ncnc2[nH]cnc12 [Adenine]								Ki [1]: 3.2 ± 1.1 µM
Nc1nc2nc[nH]c2c(=O)[nH]1 [Guanine]								Ki [1]: 0.36 ± 0.18 µM
CN(N=Nc1nc(O)c2[nH]cnc2n1)C(=O)Oc1ccc([N+](=O)[O-])cc1 [Compound 4]	>2	114 ± 34 µM	157 ± 55 µM				> 250 µM	antitrypanosomal potency against BF T. brucei in vitro (in words) [3]: practically lost antitrypanosomal activity
COS(C)(=O)=O [MMS, methyl methanesulfonate]				48.9 µM	57.2 µM	46.7 µM		
Cc1ccc(C(=O)Nc2ccc(S(=O)(=O)O)c3cc(S(=O)(=O)O)cc(S(=O)(=O)O)c23)cc1NC(=O)c1cccc(NC(=O)Nc2cccc(C(=O)Nc3cc(C(=O)Nc4ccc(S(=O)(=O)O)c5cc(S(=O)(=O)O)cc(S(=O)(=O)O)c45)ccc3C)c2)c1 [suramin]								sensitivity (EC50) in medium with inosine compared to hypoxanthine as purine source [10, 18]: not significantly different
CN(N=Nc1nc(N)c2[nH]cnc2n1)C(=O)Oc1ccccc1 [Compound 6]	>24	10.4 ± 0.5 µM	10.7 ± 0.4 µM				> 100 µM	Ki [2, 17]: 0.46 ± 0.08 µM
N=C(N)c1ccc(OCCCCCOc2ccc(C(=N)N)cc2)cc1 [Pentamidine]				0.011 µM	0.011 µM	0.004 µM		sensitivity (EC50) in medium with inosine compared to hypoxanthine as purine source [10, 18]: not significantly different
CCOC(=O)N(C)/N=N/c1nc(O)c2nc[nH]c2n1 [Compound 3]	>136	1.84 ± 0.08 µM	2.86 ± 0.13 µM				> 250 µM	Ki [2]: 0.12 ± 0.03 µM
CN(N=Nc1nc(O)c2[nH]cnc2n1)C(=O)Oc1ccccc1 [Compound 2]	>312	0.8 ± 0.07 µM	1.21 ± 0.19 µM	2.3 µM	4.3 µM	6.8 µM	> 250 µM	Ki [2, 17]: 0.2 ± 0.06 µM; potency against cells with impaired or lost MSH2 activity (Tbb msh2-/-): reduced potency; half-life at 50 µM (physchem): 5.6 ± 0.3 h
Cn1nnc2c(C(N)=O)ncn2c1=O [TMZ, temozolomide]				95 µM	204 µM	173 µM		potency against cells with impaired or lost MSH2 activity (Tbb msh2-/-): reduced potency
N.N.[Cl][Pt][Cl] [Cisplatin]								EC50 (Tbb msh2+/+): 13.4 µM; EC50 (Tbb msh2+/-): 17.7 µM; EC50 (Tbb msh2-/-): 13.6 µM
